Laboratory results published in patent US12534457B2, “Heteroaryl derivative compounds, and uses thereof” (Voronoi Inc., priority 2021, dated 2026).

System: Ba/F3 cells expressing EGFR Del19/C797S (EGFR DC)
Assay: Proliferation inhibitory activity, Ba/F3 cells expressing EGFR Del19/C797S (CellTiter-Glo)
Format: cell-based
Details: 72 hours of compound treatment
Description: The following experiments were performed to evaluate the inhibitory activity of the compounds according to the present disclosure on Ba/F3 proliferation expressing EGFR C797S, L861Q, G719A, S768I, L718Q, and/or G724S mutations.
For Ba/F3 cells, RPMI-1640 containing 10% FBS and 5 ng/ml IL-3 (R&D Systems) was used. Transduced Ba/F3 cells were cultured after adding 1 μg/ml puromycin (Invitrogen) to the same medium.
At 24 hours before treatment with the compounds, 3000 to 5000 cells were aliquoted into each well of a white clear bottom 96 well plate (Corning). The compounds were diluted in dimethyl sulfoxide (3 times dilution, 12 concentrations in total), and injected in an amount of 1 μl so that the final concentration was 0.2 nM to 5 uM. For measurement of living cells, after 72 hours of compound treatment, the cells were stored at room temperature for 10 min using CellTiter-Glo luminescentcell-viability reagent (Promega), and then luminescence intensity was measured using a reader (SynergyNeo, Biotek). Each test was repeated three times. Result values were calculated as the cell growth rate (%) compared to the control. The graphs were created using GraphPad Prism version 8.3.0 program and the GI50 values were calculated.

**Q.** `COc1cc(Nc2cc(N3OCC[C@@H]3c3cc(F)cc(F)c3)ncn2)ccc1N1CCC(N2CCN(C)CC2)CC1` [Example 26] was tested. Which GI50 did it give?
**A.** Its GI50 is under 0.05 µM.

Same assay, conditions: Mus musculus, BaF3, 72 hours of compound treatment

**Q.** How did the GI50 turn out when `CN1CCN(c2ccc(Nc3cc(N4OCC[C@H]4c4ccccc4)ncn3)cc2)CC1` [Example 2, (S)—N-(4-(4-methylpiperazin-1-yl)phenyl)-6-(3-phenylisoxazolidin-2-yl)pyrimidin-4-amine] was run?
**A.** Its GI50 is 0.05 to 0.5 µM.

**Q.** With `CN1CCN(c2ccc(Nc3cc(N4OCC[C@@H]4Cc4ccccc4)ncn3)cc2)CC1` [Example 3, (S)-6-(3-benzylisoxazolidin-2-yl)-N-(4-(4-methylpiperazin-1-yl)phenyl)pyrimidin-4-amine] as the compound, how does the GI50 read?
**A.** The GI50 was under 0.05 µM.

**Q.** With `CN1CCN(Cc2cc(Nc3cc(N4OCC[C@@H]4c4cc(F)cc(F)c4)ncn3)cc(C(C)(C)C#N)c2)CC1` [Example 14, (R)-2-(3-((6-(3-(3,5-difluorophenyl)isoxazolidin-2-yl)pyrimidin-4-yl)amino)-5-((4-methylpiperazin-1-yl)methyl)phenyl)-2-methylpropanenitrile] as the compound, how does the GI50 read?
**A.** The GI50 was 0.05 to 0.5 µM.

**Q.** How did the GI50 turn out when `CN1CCN(C2CCN(c3ccc(Nc4cc(N5OCC[C@@H]5c5cc(F)cc(F)c5)ncn4)cc3)CC2)CC1` [Example 17, (R)-6-(3-(3,5-difluorophenyl)isoxazolidin-2-yl)-N-(4-(4-(4-methylpiperazin-1-yl)piperidin-1-yl)phenyl)pyrimidin-4-amine] was run?
**A.** The GI50 was 0.05 to 0.5 µM.

**Q.** How did the GI50 turn out when `CN1CCN(c2ccc(Nc3cc(N4OCC[C@@H]4c4cc(F)cc(F)c4)ncn3)cc2)CC1` [Example 18, (R)-6-(3-(3,5-difluorophenyl)isoxazolidin-2-yl)-N-(4-(4-methylpiperazin-1-yl)phenyl)pyrimidin-4-amine] was run?
**A.** The GI50 was 0.05 to 0.5 µM.

**Q.** Which GI50 does the source give for `CN(C)CCN(C)c1ccc(Nc2cc(N3OCC[C@@H]3c3cc(F)cc(F)c3)ncn2)cc1` [Example 19, (R)—N^1-(6-(3-(3,5-difluorophenyl)isoxazolidin-2-yl)pyrimidin-4-yl)-N^4-(2-(dimethylamino)ethyl)-N^4-methylbenzene-1,4-diamine] here?
**A.** Its GI50 is 0.05 to 0.5 µM.

**Q.** Which GI50 does the source give for `COc1cc(N2CCC(N3CCN(C)CC3)CC2)c(C)cc1Nc1cc(N2OCC[C@@H]2c2cc(F)cc(F)c2)ncn1` [Example 20, (R)-6-(3-(3,5-difluorophenyl)isoxazolidin-2-yl)-N-(2-methoxy-5-methyl-4-(4-(4-methylpiperazin-1-yl)piperidin-1-yl)phenyl)pyrimidin-4-amine] here?
**A.** Its GI50 is under 0.05 µM.

**Q.** How did the GI50 turn out when `COc1cc(N2CCC(N3CCN(C)CC3)CC2)ccc1Nc1cc(N2OCC[C@@H]2c2cc(F)cc(F)c2)ncn1` [Example 21, (R)-6-(3-(3,5-difluorophenyl)isoxazolidin-2-yl)-N-(2-methoxy-4-(4-(4-methylpiperazin-1-yl)piperidin-1-yl)phenyl)pyrimidin-4-amine] was run?
**A.** Its GI50 is under 0.05 µM.

**Q.** With `COc1cc(N2CCC(N(C)C)CC2)ccc1Nc1cc(N2OCC[C@@H]2c2cc(F)cc(F)c2)ncn1` [Example 22, (R)-6-(3-(3,5-difluorophenyl)isoxazolidin-2-yl)-N-(4-(4-(dimethylamino)piperidin-1-yl)-2-methoxyphenyl)pyrimidin-4-amine] as the compound, how does the GI50 read?
**A.** The GI50 was under 0.05 µM.

**Q.** How did the GI50 turn out when `CN1CCN(C2CCN(c3ccc(Nc4cc(N5OCC[C@@H]5c5cc(F)cc(F)c5)ncn4)cc3C(F)(F)F)CC2)CC1` [Example 23, (R)-6-(3-(3,5-difluorophenyl)isoxazolidin-2-yl)-N-(4-(4-(4-methylpiperazin-1-yl)piperidin-1-yl)-3-(trifluoromethyl)phenyl)pyrimidin-4-amine] was run?
**A.** The GI50 was 0.05 to 0.5 µM.

**Q.** Which GI50 does the source give for `CN1CCN(C2CCN(c3ccc(Nc4cc(N5OCC[C@@H]5c5cc(F)cc(F)c5)ncn4)cc3S(C)(=O)=O)CC2)CC1` [Example 24, (R)-6-(3-(3,5-difluorophenyl)isoxazolidin-2-yl)-N-(4-(4-(4-methylpiperazin-1-yl)piperidin-1-yl)-3-(methylsulfonyl)phenyl)pyrimidin-4-amine] here?
**A.** Its GI50 is 0.05 to 0.5 µM.

**Q.** With `CCc1cc(Nc2cc(N3OCC[C@@H]3c3cc(F)cc(F)c3)ncn2)c(OC)cc1N1CCC(N2CCN(C)CC2)CC1` [Example 25, (R)-6-(3-(3,5-difluorophenyl)isoxazolidin-2-yl)-N-(5-ethyl-2-methoxy-4-(4-(4-methylpiperazin-1-yl)piperidin-1-yl)phenyl)pyrimidin-4-amine] as the compound, how does the GI50 read?
**A.** Its GI50 is under 0.05 µM.

**Q.** For `COc1cc(N2CCC(N3CCN(C)CC3)CC2)ccc1Nc1cc(N2OCC[C@@H]2c2cccc(C(F)(F)F)c2)ncn1` [Example 27, (R)—N-(2-methoxy-4-(4-(4-methylpiperazin-1-yl)piperidin-1-yl)phenyl)-6-(3-(3-(trifluoromethyl)phenyl)isoxazolidin-2-yl)pyrimidin-4-amine], which GI50 is on record?
**A.** The GI50 was 0.05 to 0.5 µM.

**Q.** How did the GI50 turn out when `COc1cc(N2CCC(N3CCN(C)CC3)CC2)ccc1Nc1cc(N2OCC[C@@H]2c2cccc(C(F)(F)F)c2F)ncn1` [Example 28, (R)-6-(3-(2-fluoro-3-(trifluoromethyl)phenyl)isoxazolidin-2-yl)-N-(2-methoxy-4-(4-(4-methylpiperazin-1-yl)piperidin-1-yl)phenyl)pyrimidin-4-amine] was run?
**A.** Its GI50 is 0.05 to 0.5 µM.

**Q.** With `COc1cc(N2CCC(N3CCN(C)CC3)CC2)ccc1Nc1cc(N2OCC[C@@H]2c2cccc(F)c2)ncn1` [Example 29, (R)-6-(3-(3-fluorophenyl)isoxazolidin-2-yl)-N-(2-methoxy-4-(4-(4-methylpiperazin-1-yl)piperidin-1-yl)phenyl)pyrimidin-4-amine] as the compound, how does the GI50 read?
**A.** The GI50 was under 0.05 µM.

**Q.** How did the GI50 turn out when `COc1cc(N2CCC(N3CCN(C)CC3)CC2)ccc1Nc1cc(N2OCC[C@@H]2c2cc(F)ccc2F)ncn1` [Example 30, (R)-6-(3-(2,5-difluorophenyl)isoxazolidin-2-yl)-N-(2-methoxy-4-(4-(4-methylpiperazin-1-yl)piperidin-1-yl)phenyl)pyrimidin-4-amine] was run?
**A.** The GI50 was under 0.05 µM.

**Q.** For `COc1cc(N2CCC(N3CCN(C)CC3)CC2)ccc1Nc1cc(N2OCC[C@@H]2c2ccc(F)c(Cl)c2)ncn1` [Example 31, (R)-6-(3-(3-chloro-4-fluorophenyl)isoxazolidin-2-yl)-N-(2-methoxy-4-(4-(4-methylpiperazin-1-yl)piperidin-1-yl)phenyl)pyrimidin-4-amine], which GI50 is on record?
**A.** Its GI50 is under 0.05 µM.

**Q.** `COc1cc(N2CCC(N3CCN(C)CC3)CC2)ccc1Nc1cc(N2OCC[C@@H]2c2cccc(F)c2F)ncn1` [Example 32, (R)-6-(3-(2,3-difluorophenyl)isoxazolidin-2-yl)-N-(2-methoxy-4-(4-(4-methylpiperazin-1-yl)piperidin-1-yl)phenyl)pyrimidin-4-amine] was tested. Which GI50 did it give?
**A.** Its GI50 is under 0.05 µM.

**Q.** How did the GI50 turn out when `COc1cc(N2CCC(N3CCN(C)CC3)CC2)ccc1Nc1cc(N2OCC[C@@H]2c2ccc(F)cc2)ncn1` [Example 33, (R)-6-(3-(4-fluorophenyl)isoxazolidin-2-yl)-N-(2-methoxy-4-(4-(4-methylpiperazin-1-yl)piperidin-1-yl)phenyl)pyrimidin-4-amine] was run?
**A.** The GI50 was under 0.05 µM.

**Q.** How did the GI50 turn out when `COc1cc(N2CCC(N3CCN(C)CC3)CC2)ccc1Nc1cc(N2OCC[C@@H]2c2cccs2)ncn1` [Example 35, (R)—N-(2-methoxy-4-(4-(4-methylpiperazin-1-yl)piperidin-1-yl)phenyl)-6-(3-(thiophen-2-yl)isoxazolidin-2-yl)pyrimidin-4-amine] was run?
**A.** The GI50 was under 0.05 µM.

**Q.** How did the GI50 turn out when `COc1cc(N2CCC(N3CCN(C)CC3)CC2)ccc1Nc1cc(N2OCC[C@@H]2c2cccc3ccccc23)ncn1` [Example 36, (R)—N-(2-methoxy-4-(4-(4-methylpiperazin-1-yl)piperidin-1-yl)phenyl)-6-(3-(naphthalen-1-yl)isoxazolidin-2-yl)pyrimidin-4-amine] was run?
**A.** Its GI50 is 0.05 to 0.5 µM.
